Data on four molecules can be found in PMC10771590, “Pathway crosstalk between the central metabolic and heme biosynthetic pathways in Phanerochaete chrysosporium” (Applied Microbiology and Biotechnology, 2024).

What is called Km is the substrate concentration at which the rate is half of its maximum. In general, Vmax refers to the top rate of the reaction or transport when substrate is in excess.

Series [1] deals with CS from Drosophila melanogaster. The arrangement: method as in Matsuoka and Srere 1973; Lee et al. 1997. Conditions: ref Matsuoka and Srere 1973; Lee et al. 1997; cited from earlier work.
The test system of another series is CS from rat kidney. The arrangement: method as in Matsuoka and Srere 1973; Lee et al. 1997. Particulars: ref Matsuoka and Srere 1973; Lee et al. 1997; cited from earlier work.
Series [2] addresses T1, recombinant PcGAPDH (rPcGAPDH) (Phanerodontia chrysosporium, UniProt Q01982).
T1 construct: 6xHis-tag (pET-30) (cleaved yes); made in house; host or cells: E. coli BL21(DE3)pLysS
In words: GAPDH assay and steady-state kinetic analysis. It is filed as biochemical, Phanerochaete chrysosporium. Conditions: 1 μM inhibitor, 5-min incubation, 0.6 mM GAP3 (Fig. 2C). The method, then:
GAPDH assay was performed as previously described (Campanale et al. [2003]). For steady-state kinetic analysis, the reaction mixture (1 ml) contained 40 mM phosphate (pH 7.6), 5.2 μg recombinant PcGAPDH (rPcGAPDH), 40 mM triethanolamine, 5 mM NAD^+, and 0.6–2 mM glyceraldehyde 3-phosphate (GAP3). Reactions were monitored by the increase in absorbance at 340 nm (ε 6220 M^–1 cm^–1) for 1 min, and initial velocities were determined. Inhibitory experiments were done in the presence of 0–2.5 μM hemin. To examine the effect of hemin on GAPDH kinetics, PcGAPDH was incubated with either buffer (control) or hemin for 5 min prior to initiating the reaction. Kinetic parameters were determined from Lineweaver–Burk plots, and Ki values were determined from the secondary plot of each slope of the Lineweaver–Burk plots. Immediately prior to use, hemin was dissolved at 10 mM in 0.1 M NaOH and diluted with 40 mM Tris–HCl (pH 7.5).
Fig. 2 Heterologous expression of PcGAPDH and inhibitory effect of hemin on GAPDH reaction. A M, molecular weight marker; lane 1, rPcGAPDH-His-tag; lane 2, His-tag-cleaved rPcGAPDH. B Reaction mixtures containing 2.5 nM rPcGAPDH, 40 mM phosphate (pH 7.6), 40 mM triethanolamine, 5 mM NAD^+, and 0.6–2 mM GAP3. […] Inset: secondary plots of each slope of Lineweaver–Burk plots against the concentration of hemin for determining inhibition constants. C Reaction mixtures containing 2.5 nM rPcGAPDH, 40 mM phosphate (pH 7.6), 40 mM triethanolamine, 5 mM NAD^+, and 0.6 mM GAP3. Reactions were started by adding substrates followed by 5-min incubation with either buffer or 1 μM inhibitor (hemin or protoporphyrin IX, PPIX). […] All experiments were performed in triplicate. Bars indicated as mean values ± standard deviation (error bars)

Series [3] has as its target T2, rPcCS (mitochondrial citrate synthase) (Phanerodontia chrysosporium, UniProt Q0EAA7).
T2 sequence (Q0EAA7 1-446): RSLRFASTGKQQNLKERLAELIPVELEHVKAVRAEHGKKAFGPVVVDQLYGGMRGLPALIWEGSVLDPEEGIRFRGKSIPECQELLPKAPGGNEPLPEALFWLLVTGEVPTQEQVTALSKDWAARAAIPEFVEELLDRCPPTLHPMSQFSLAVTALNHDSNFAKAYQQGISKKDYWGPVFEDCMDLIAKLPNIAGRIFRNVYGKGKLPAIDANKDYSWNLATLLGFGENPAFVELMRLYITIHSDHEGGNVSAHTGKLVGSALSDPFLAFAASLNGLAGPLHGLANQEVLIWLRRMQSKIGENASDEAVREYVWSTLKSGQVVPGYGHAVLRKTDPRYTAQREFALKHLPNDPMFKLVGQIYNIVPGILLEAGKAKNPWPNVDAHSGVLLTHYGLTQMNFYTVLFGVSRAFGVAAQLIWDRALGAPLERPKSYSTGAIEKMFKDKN
Kind of series: CS assay (DTNB method) and steady-state kinetic analysis. Conditions: at a concentration more than 10 times the inhibitory concentration of hemin (data not shown). It is filed as biochemical, Phanerochaete chrysosporium. The method, then:
CS was assayed by the 5, 5′-dithiobis-2-nitrobenzoic acid (DTNB) method, as described previously (Srere et al. [1963]). […] CS catalyzes the reaction of OAA with AcCoA, generating citrate and CoA. Thus, reactions were monitored by the amount of released CoA, which was followed at 412 nm (ε 13 600 M^–1cm^–1) by the formation of 2-nitro-5-mercaptobenzoic acid, via the reaction of CoA with DTNB. Reactions were monitored for 1 min, and initial velocity was determined. […] Inhibition studies were carried out in the presence of 0–2.5 μM hemin as described above. Kinetic parameters were determined from Lineweaver–Burk plots, and Ki values were determined from the secondary plot of the slopes of the Lineweaver–Burk plots. Hemin and OAA solutions were prepared immediately prior to use.
Fig. 5 Inhibitory effect of hemin on PcCS reaction. […] Reaction mixtures contained 1.5 nM rPcCS, 40 mM Tris-HCl (pH 8.5), and 120 μM DTNB. Fixed substrate was added at 12 μM and variable substrate at 3–12 μM. […] Insets: secondary plots of each slope of Lineweaver–Burk plots against the concentration of hemin for determining inhibition constants.

Substrate in series [4]: O=C(O)CC(=O)C(=O)O
Kind of series: purified protein, by the assay type. Conditions: other: rPcCS, substrate OAA; pH 8.5.

Substrate in series [5]: CC(=O)SCCNC(=O)CCNC(=O)[C@H](O)C(C)(C)COP(=O)(O)OP(=O)(O)OC[C@H]1O[C@@H](n2cnc3c(N)ncnc32)[C@H](O)[C@@H]1OP(=O)(O)O
In words: purified protein, by the assay type. Conditions: other: rPcCS, substrate AcCoA; pH 8.5.

T1 sequence (Q01982 whole entry): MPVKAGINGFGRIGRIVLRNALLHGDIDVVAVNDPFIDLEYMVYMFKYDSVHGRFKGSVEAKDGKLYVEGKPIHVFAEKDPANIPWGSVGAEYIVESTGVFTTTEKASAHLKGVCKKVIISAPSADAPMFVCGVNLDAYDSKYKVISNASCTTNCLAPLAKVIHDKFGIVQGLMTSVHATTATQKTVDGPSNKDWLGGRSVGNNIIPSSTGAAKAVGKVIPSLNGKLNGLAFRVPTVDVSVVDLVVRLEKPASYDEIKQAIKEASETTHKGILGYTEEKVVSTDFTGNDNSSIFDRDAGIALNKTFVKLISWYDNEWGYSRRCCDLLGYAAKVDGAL

On to `CC(C)(COP(=O)(O)OP(=O)(O)OC[C@H]1O[C@@H](n2cnc3c(N)ncnc32)[C@H](O)[C@@H]1OP(=O)(O)O)[C@@H](O)C(=O)NCCC(=O)NCCS` [CoA, coenzyme A], for which the mode of inhibition entry in series [1] was “competitive inhibitors of AcCoA and as non-competitive inhibitors of OAA”; with CS from rat kidney it was “competitive inhibitors of AcCoA and as non-competitive inhibitors of OAA”.

Consider `CCC(=O)SCCNC(=O)CCNC(=O)[C@H](O)C(C)(C)COP(=O)(O)OP(=O)(O)OC[C@H]1O[C@@H](n2cnc3c(N)ncnc32)[C@H](O)[C@@H]1OP(=O)(O)O` [propionyl-CoA], for which the mode of inhibition result in series [1] is “competitive inhibitors of AcCoA and as non-competitive inhibitors of OAA”; in the series on CS from rat kidney it was “competitive inhibitors of AcCoA and as non-competitive inhibitors of OAA”.

As for `C=CC1=C(C)c2cc3[nH]c(cc4nc(cc5[nH]c(cc1n2)c(C)c5CCC(=O)O)C(CCC(=O)O)=C4C)c(C)c3C=C` [protoporphyrin IX], the “inhibition of PcGAPDH activity” value in series [2] is on record as “as effectively as by hemin”. Moreover, the “inhibition of PcCS” value in series [3] is given as “slightly inhibited”.

B1: rPcCS (mitochondrial citrate synthase) (Phanerodontia chrysosporium) (protein)
chain: T2 sequence (Q0EAA7 1-446)
Take B1: in series [4], the Km worked out at 6.2 µM and the Vmax is 31.4 nmol/min/mL. Also, in series [5], the Km turned out to be 4.2 µM and the Vmax came out at 25.8 nmol/min/mL.
